Key:
miR-17 = assay: Gel-retardation assay, hybridization with miR-17; format: binding; settings: 50 mM Tris-HCl pH 7.0, 200 mM KCl, 1 mM EDTA, 37 °C, 45 min, mean of 3
Source text: (§1) We carried out a comparative analysis of the hybridization properties of the developed DCs with the corresponding SCs, which were the products of the first stage of the DCs synthesis. As discussed above, each SC consisted of the corresponding oligonucleotide A, which was complementary to the 5′-region of the matching miRNA target, and the catalytic peptide [LRLRG]2, attached to the 5′-end of this oligonucleotide via a thiohexyl linker (linker 2). […] Indeed, the level of binding of DCs to their miRNA targets reached 96, 90, 75, 55% at equimolar concentration (1 μM), and 99, 96, 92 and 69% at 5-fold excess of DCs over miR-17, miR-18a, miR-21 and miR-155, respectively (Figure 2). […]
(§2) The reaction mixture (4 µL) containing 50 mM Tris-HCl, pH 7.0, 200 mM KCl and 1 mM EDTA, 100 cpm (Cherenkov’s counting) of [^32P]-miRNA, 1 μM unlabeled miRNA, a conjugate at a concentration ranging from 0.1 to 10 μM was incubated at 37 °C for 45 min and quenched by adding of a loading buffer (20% ficoll, 0.025% bromophenol blue, 0.025% xylene cyanol). […] Formation of the complex miRNA/conjugate was analyzed by electrophoresis in 15% native PAAG at 4 °C. The gels were analyzed using Molecular Imager FX. The extent of binding of conjugate to miRNA was determined as a ratio of radioactivity measured in the complex to the total radioactivity applied onto the gel lane.

miR-18a = assay: Gel-retardation assay, hybridization with miR-18a; format: binding; settings: 37 °C, 45 min, mean of 3
Source text: as §1, §2

[1] = format: in vitro ADME, bovine; settings: serum
Protocol: Stability of miRNA-21-DC and miRNA-155-DC and corresponding ONs was carried out in reaction mixtures (90 µL) containing DCs or ONs at a concentration of 0.1 mg/mL in Dulbecco’s Modified Eagle Medium (DMEM) with 10% FBS at 37 °C for 24 h. Aliquots (10 μL) were taken after 0, 0.5, 1, 2, 4, 8, and 24 h of incubation. The reaction was stopped by adding 10 μL of 8 M urea, and the reaction mixture was immediately frozen in liquid nitrogen. DCs and ONs cleavage products were analyzed in 12% PAAG/8M urea. To identified products, gels were stained with the Stains-All dye and photographed using a gel documentation system.
Figure S12. Stability of Dual conju gat es (DCs) and corresponding Du al oligonucleotides (ONs)
targeted to miR-155 and miR-21 in cell medium DMEM supplemented with 10% FBS . Im a g e s
of the 12% PAAG/8M urea, stained with Stains-Alland kinetics of degradation of DCs and ONs .
Conjugates and oligonucleotides at a concentration of 0. 1 mg/mL were incubated in DMEM
supplemented with 10% FBS at 37 °C for 24 h.
(1 picture or pasted object on this page, not shown here)

**Q.** For “CTACCTGC–linker 1–[GRLRL]2–linker 2–AAGCACTTTG [miRNA-17-DC, Dual oligonucleotide-peptide conjugate targeted to miR-17: catalytic peptide [LRLRG]2 between two 2-aminoadenine-containing oligodeoxyribonucleotides]”, which “level of binding of DC to miRNA target” value (miR-17; 5-fold excess of DC over miRNA (1 µM)) is on record?
**A.** 99%

**Q.** What about the “level of binding of DC to miRNA target” value (miR-17; equimolar, DC 1 µM : miRNA 1 µM, 15% native PAAG) of the same substance?
**A.** 96%

**Q.** With “TATCTGC–linker 1–[GRLRL]2–linker 2–ATGCACCTTA [miRNA-18a-DC, Dual oligonucleotide-peptide conjugate targeted to miR-18a: catalytic peptide [LRLRG]2 between two 2-aminoadenine-containing oligodeoxyribonucleotides]” as the substance, how does the “level of binding of DC to miRNA target” value (miR-18a; 5-fold excess of DC over miRNA (1 µM), same buffer) read?
**A.** 96%

**Q.** What about the “level of binding of DC to miRNA target” value (miR-18a; equimolar, DC 1 µM : miRNA 1 µM, 50 mM Tris-HCl pH 7.0, 200 mM KCl, 1 mM EDTA) of the same substance?
**A.** 90%

**Q.** For “ACCCCTAT–linker 1–[GRLRL]2–linker 2–TTAGCATTAA [miRNA-155-DC, Dual oligonucleotide-peptide conjugate targeted to miR-155: catalytic peptide [LRLRG]2 between two 2-aminoadenine-containing oligodeoxyribonucleotides]”, which “half-life time (τ1/2) in 10% FBS” value [1] is on record?
**A.** 9.01 ± 0.5 h

**Q.** With “TCAACATC–linker 1–[GRLRL]2–linker 2–GATAAGCTA [miRNA-21-DC, Dual oligonucleotide-peptide conjugate targeted to miR-21: catalytic peptide [LRLRG]2 between two 2-aminoadenine-containing oligodeoxyribonucleotides]” as the substance, how does the “half-life time (τ1/2) in 10% FBS” value [1] read?
**A.** 8 ± 0.1 h

Reference: article PMC7287882, “Dual miRNases for Triple Incision of miRNA Target: Design Concept and Catalytic Performance” (Molecules, 2020)
